Measured values reported in patent US9579385B2, “Ophthalmic compositions comprising polyvinyl caprolactam-polyvinyl acetate-polyethylene glycol graft copolymers” (Allergan, Inc., priority 2011, dated 2017).
In brackets after ≈: the same amount, converted by molar mass.

Experiment: Bimatoprost solubility in formulation vehicles with different solubilizers
Format: physicochemical
Conditions: for solubility at 8 weeks: measured at 8 weeks; for solubility at 1 week: formulation vehicle with 1% SOLUPLUS (PCA-PVA-PEG), vehicle with 1% SOLUPLUS (PCA-PVA-PEG), measured at 1 week only
From the text: Table 1 summarizes solubility of bimatoprost in vehicles with 5 different solubilizers over a range of temperatures.

- solubility at 8 weeks (formulation vehicle with 1% POE 40 Stearate, aqueous with cosolvent or surfactant or cyclodextrin, vehicle with 1% POE 40 Stearate, 5 °C): 1270 µg/mL (≈ 3.05 mM)
- solubility at 8 weeks (formulation vehicle with 1% POE 40 Stearate, aqueous with cosolvent or surfactant or cyclodextrin, vehicle with 1% POE 40 Stearate, 25 °C): 1210 µg/mL (≈ 2.92 mM)
- solubility at 8 weeks (formulation vehicle with 1% POE 40 Stearate, aqueous with cosolvent or surfactant or cyclodextrin, vehicle with 1% POE 40 Stearate, 40 °C): 1150 µg/mL (≈ 2.76 mM)
- solubility at 8 weeks (formulation vehicle with 1% Polysorbate 20, aqueous with cosolvent or surfactant or cyclodextrin, vehicle with 1% Polysorbate 20, 5 °C): 1240 µg/mL (≈ 2.99 mM)
- solubility at 8 weeks (formulation vehicle with 1% Polysorbate 20, aqueous with cosolvent or surfactant or cyclodextrin, vehicle with 1% Polysorbate 20, 25 °C): 1180 µg/mL (≈ 2.83 mM)
- solubility at 8 weeks (formulation vehicle with 1% Polysorbate 20, aqueous with cosolvent or surfactant or cyclodextrin, vehicle with 1% Polysorbate 20, 40 °C): 1050 µg/mL (≈ 2.53 mM)
- solubility at 8 weeks (formulation vehicle with 1% Polysorbate 80, aqueous with cosolvent or surfactant or cyclodextrin, vehicle with 1% Polysorbate 80, 5 °C): 1680 µg/mL (≈ 4.04 mM)
- solubility at 8 weeks (formulation vehicle with 1% Polysorbate 80, aqueous with cosolvent or surfactant or cyclodextrin, vehicle with 1% Polysorbate 80, 25 °C): 1520 µg/mL (≈ 3.67 mM)
- solubility at 8 weeks (formulation vehicle with 1% Polysorbate 80, aqueous with cosolvent or surfactant or cyclodextrin, vehicle with 1% Polysorbate 80, 40 °C): 1460 µg/mL (≈ 3.51 mM)
- solubility at 1 week (aqueous with cosolvent or surfactant or cyclodextrin, 5 °C): 427 µg/mL (≈ 1.03 mM)
- solubility at 1 week (aqueous with cosolvent or surfactant or cyclodextrin, 25 °C): 3510 µg/mL (≈ 8.45 mM)
- solubility at 1 week (aqueous with cosolvent or surfactant or cyclodextrin, 40 °C): 4750 µg/mL (≈ 11.4 mM)
- solubility at 8 weeks (formulation vehicle with 1% SOLUTOL HS 15, aqueous with cosolvent or surfactant or cyclodextrin, vehicle with 1% SOLUTOL HS 15, 5 °C): 1500 µg/mL (≈ 3.61 mM)
- solubility at 8 weeks (formulation vehicle with 1% SOLUTOL HS 15, aqueous with cosolvent or surfactant or cyclodextrin, vehicle with 1% SOLUTOL HS 15, 25 °C): 1320 µg/mL (≈ 3.18 mM)
- solubility at 8 weeks (formulation vehicle with 1% SOLUTOL HS 15, aqueous with cosolvent or surfactant or cyclodextrin, vehicle with 1% SOLUTOL HS 15, 40 °C): 1240 µg/mL (≈ 2.98 mM)
Structure (SMILES): CCNC(=O)CCC/C=C\C[C@@H]1[C@@H](/C=C/[C@@H](O)CCc2ccccc2)[C@H](O)C[C@@H]1O [Bimatoprost]
